Four compounds from patent US7879868B2 (Novartis AG, priority 2002, dated 2011) can be followed below.

The nature of data set [1]: Effect of imatinib on irinotecan pharmacokinetics in mice. As to conditions: for bioavailability: mouse, plasma, oral; for SN-38 plasma exposure: irinotecan 10 mg/kg oral. The source says:
Ci: rate of clearance; Ka: absorption rate; F: calculated bioavailability (relative to intravenous dosing).

In data set [2] the test system is Saos2pcDNA#3#2 cells. The experiment in a line: Growth inhibition in vector control Saos2 cells. Type of data set: cell-based, human.
Data set [3] has as its system Saos2BCRP#4 cells. The experiment in a line: cells.
Data set [4] has as its system Saos2BCRPMUT#10 cells. The experiment in a line: cells.
The target of data set [5] is T1, BCRP (Homo sapiens, UniProt Q9UNQ0).
T1 sequence (Q9UNQ0 1-655): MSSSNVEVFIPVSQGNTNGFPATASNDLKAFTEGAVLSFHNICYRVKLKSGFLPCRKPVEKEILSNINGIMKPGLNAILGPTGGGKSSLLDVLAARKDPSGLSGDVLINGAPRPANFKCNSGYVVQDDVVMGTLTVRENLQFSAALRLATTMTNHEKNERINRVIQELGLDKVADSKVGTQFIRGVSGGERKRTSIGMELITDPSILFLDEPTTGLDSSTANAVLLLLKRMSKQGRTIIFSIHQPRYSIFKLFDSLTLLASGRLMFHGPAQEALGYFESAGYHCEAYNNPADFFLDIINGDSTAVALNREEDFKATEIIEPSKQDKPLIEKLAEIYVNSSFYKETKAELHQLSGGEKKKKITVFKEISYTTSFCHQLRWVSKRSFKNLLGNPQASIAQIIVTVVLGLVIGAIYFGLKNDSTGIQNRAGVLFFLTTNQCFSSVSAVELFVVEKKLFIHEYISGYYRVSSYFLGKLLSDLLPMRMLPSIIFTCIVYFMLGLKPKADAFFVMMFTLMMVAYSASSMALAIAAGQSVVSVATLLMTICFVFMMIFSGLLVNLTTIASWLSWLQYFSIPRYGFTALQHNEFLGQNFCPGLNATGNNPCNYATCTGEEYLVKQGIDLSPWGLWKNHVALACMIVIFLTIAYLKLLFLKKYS

Setting [6] is: read-out: concentration of SN-38 causing 50% growth inhibition (IC50), imatinib 0 μM.
Where [7] appears, read: read-out: concentration of SN-38 causing 50% growth inhibition (IC50), imatinib 0.1 μM.
Where [8] appears, read: read-out: concentration of SN-38 causing 50% growth inhibition (IC50), imatinib 0.3 μM.
Setting [9] is: read-out: concentration of SN-38 causing 50% growth inhibition (IC50), imatinib 1.0 μM.
The mark [10] stands for this setting: read-out: concentration of SN-38 causing 50% growth inhibition (IC50), imatinib 3.0 μM.
The mark [11] stands for this setting: Homo sapiens, SAOS-2, read-out: concentration of topotecan causing 50% growth inhibition, in presence of 1 μM imatinib.
Where [12] appears, read: Homo sapiens, SAOS-2, read-out: concentration of topotecan causing 50% growth inhibition, in presence of 3 μM imatinib.
Where [13] appears, read: Homo sapiens, SAOS-2, read-out: concentration of topotecan causing 50% growth inhibition, in presence of 5 μM imatinib.
Where [14] appears, read: Homo sapiens, SAOS-2, read-out: concentration of topotecan causing 50% growth inhibition, topotecan alone.

Where two headings read alike, the source gives them in different places.

As to `CCc1c2c(nc3ccc(OC(=O)N4CCC(N5CCCCC5)CC4)cc13)-c1cc3c(c(=O)n1C2)COC(=O)[C@]3(O)CC` [IRN], the bioavailability came out at 23 ± 2% in data set [1] and 9 ± 2% in data set [1] (10 mg/kg).

With `CCc1c2c(nc3ccc(O)cc13)-c1cc3c(c(=O)n1C2)COC(=O)[C@]3(O)CC` [SN-38, 7-ethyl-10-hydroxycamptothecin], the IC50 in data set [2] (setting [6]) is 2.9 nM; in data set [2] (setting [7]), 2.7 nM; in data set [2] (setting [8]), 2.7 nM; in data set [2] (setting [9]), 3.3 nM; in data set [2] (setting [10]), 3.7 nM; in data set [3] (setting [6]) it was greater than 100 nM. Moreover, the IC50 in data set [3] (setting [7]) is 82 nM; in data set [3] (setting [8]), 29 nM; in data set [3] (setting [9]) it was 14 nM; in data set [3] (setting [10]), 7 nM; in data set [4] (setting [6]) it was 1.7 nM; in data set [4] (setting [7]), 1.7 nM. In addition, the IC50 is 1.6 nM in data set [4] (setting [8]), 1.7 nM in data set [4] (setting [9]) and 1.6 nM in data set [4] (setting [10]). Moreover, the SN-38 plasma exposure in data set [1] (mice, with imatinib 50 mg/kg oral) worked out at 775 ng/h/mL; in data set [1] (mice, without imatinib), 263 ng/h/mL.

In the case of `Cc1ccc(NC(=O)c2ccc(CN3CCN(C)CC3)cc2)cc1Nc1nccc(-c2cccnc2)n1` [imatinib], the “effect of imatinib on oral bioavailability of irinotecan” value in data set [1] (mice, imatinib 50 mg/kg oral + irinotecan 10 mg/kg oral) is reported as “enhances oral bioavailability of irinotecan”. In data set [5], the “reversal of BCRP-mediated resistance to topotecan (summary of Table 1)” value is given as “complete reversal of BCRP-mediated resistance to topotecan”.

As for `CC[C@@]1(O)C(=O)OCc2c1cc1n(c2=O)Cc2cc3c(CN(C)C)c(O)ccc3nc2-1` [topotecan], the IC50 in data set [2] (Homo sapiens, SAOS-2, Saos2pcDNA cells, read-out: IC50 concentration of topotecan) came to 16 nM; in data set [2] (Homo sapiens, SAOS-2, in presence of 1 μM imatinib, read-out: concentration of topotecan causing 50% growth inhibition), 23 nM; in data set [2] (Homo sapiens, SAOS-2, in presence of 3 μM imatinib, read-out: concentration of topotecan causing 50% growth inhibition) it was 20 nM; in data set [2] (Homo sapiens, SAOS-2, in presence of 5 μM imatinib, read-out: concentration of topotecan causing 50% growth inhibition), 23 nM; in data set [2] (Homo sapiens, SAOS-2, topotecan alone, read-out: concentration of topotecan causing 50% growth inhibition), 20 nM; in data set [3] (Homo sapiens, SAOS-2, read-out: IC50 concentration of topotecan, Saos2BCRP#4 cells), 167 nM. In addition, the IC50 was 35 nM in data set [3] (setting [11]); 24 nM in data set [3] (setting [12]); 22 nM in data set [3] (setting [13]); 254 nM in data set [3] (setting [14]); 9 nM in data set [4] (Homo sapiens, SAOS-2, read-out: IC50 concentration of topotecan, Saos2Mut#10 cells); 18 nM in data set [4] (setting [11]). The IC50 in data set [4] (setting [12]) was 9.9 nM; in data set [4] (setting [13]), 15 nM; in data set [4] (setting [14]), 9 nM.
